For data set [1], the system named is NAD metabolome in skeletal muscle. The data set is described as follows: Metabolomic analysis (LC-MS) in skeletal muscle biopsies. Conditions: oral NR 1000 mg/day, 30 days. The data set is classed as in vivo, human. The method, then: (§1) Biological material was collected at both visits, following a minimum 6-hour fasting and within 6 hours after study drug intake for visit 2. Sampling included whole blood, serum, peripheral blood mononuclear cells (PBMCs), cerebrospinal fluid (CSF) and muscle biopsy. Lumbar puncture was performed according to standard clinical procedures to collect 10 ml CSF. Needle biopsy of the vastus lateralis muscle was performed using a Bard Magnum biopsy gun (BD©, United States) and 12G×10 cm biopsy needles. Muscle biopsies were immediately dissected to remove any non-muscle tissue (e.g., fat or fascia) and snap-frozen in liquid nitrogen.
Standard substances of all the targeted compounds were used to prepare stock standard solutions and these solutions were mixed and diluted to make serially diluted standard solutions in an internal standard solution containing 11 isotope-labeled compounds (NAD-13C5, NADH-d5, nicotinamide riboside-d4, nicotinic-d4 acid, nicotinic acid-d4 riboside, AMP-15N5, ATP-13C10, nicotinamide-d4, 1-methylnicotinamide-d3, adenosine-13C5 and GTP-13C10) in a concentration range of 0.0002 to 20 nmol/mL. Muscle tissues were added with water at 2.5 μL/mg raw material and then homogenized on an MM 400 mixer mill for 1 min twice. Methanol at 7.5 μL/mg raw material was then added and the samples were homogenized for 1 min three times. The samples were then placed at −20° C. for 2 h before centrifugation. 20 μL of the supernatant was mixed with 180 μL of the internal standard solution. The samples were then placed at 5° C. for 1 h and then centrifuged for 5 min at 21,000 g. The clear supernatants were used for LC-MS analyses. For metabolomic analyses in PBMCs, several aliquots of one sample were thawed on ice, centrifuged (10 min, 350×g, 4° C.), resuspended in ice-cold PBS and counted on a countess II cell counter. The equivalent volume of 10 Mio live cells was transferred into a new tube, centrifuged (10 min, 350×g, 4° C.), the supernatant removed, and the pellet immediately frozen on dry ice. Each PBMC sample was made into 75% methanol at a concentration of 50 μL per 1 Mio cells. After cell lysis on a MM 400 mixer mill for 1 min twice, the sample was centrifuged. 20 μL of the clear supernatant was mixed with 180 μL of the internal standard solution and was then used for LC-MS analysis.
For UPLC-MRM/MS, 10 μL aliquots of each standard solution and each sample solutions were injected to run LCMRM/MS either on a Waters Acquity UPLC coupled to a Sciex QTRAP 6500 Plus mass spectrometer with (−) ion detection or ESI or on an Agilent 1290 UHPLC system coupled to an Agilent 6495B QQQ mass spectrometer with (+) ion detection. For UPLC-(−) MRM/MS, a reversed-phase C18 LC column (2.1*100 mm, 1.8 μm) was used for LC separation, with the use of a tributylamine-ammonium acetate buffer (solvent A) and acetonitrile (solvent B) as the mobile phase for gradient elution at 50° C. and 0.25 mL/min. For UPLC-(+) MRM/MS, a reversed-phase C18 column (2.1*150 mm, 1.8 μm) was used for LC separation, with the use of hepatofluorobutyrate buffer (solvent A) and methanol (solvent B) as the mobile phase for gradient elution at 50° C. and 0.3 mL/min. Concentrations of individual metabolites detected in each sample were calculated by constructing linear-regression curves of individual metabolites with the analyte-to-internal standard peak area ratios (As/Ai) of standard solutions in each set of LC-MS runs and then by interpolating the calibration curves with the as/Ai values measured from injections of sample solutions in an appropriate concentration range for each compound. Sample preparation and metabolomic analyses were conducted at Creative Proteomics, NY, USA.
The between visit change ([visit 2]−[visit 1]) in MDS-UPDRS (total of subsections I-III; and individual subsections I, II and III) was compared between the NR and placebo groups using independent Student's t-test. […]

For data set [2], the system named is NAD metabolome in PBMCs. The data set is described as follows: Metabolomic analysis (LC-MS) in PBMCs. Particulars: oral NR 1000 mg/day, 30 days. The data set is classed as in vivo, human. The method, then: as §1
Standard substances of all the targeted compounds were used to prepare stock standard solutions and these solutions were mixed and diluted to make serially diluted standard solutions in an internal standard solution containing 11 isotope-labeled compounds (NAD-13C5, NADH-d5, nicotinamide riboside-d4, nicotinic-d4 acid, nicotinic acid-d4 riboside, AMP-15N5, ATP-13C10, nicotinamide-d4, 1-methylnicotinamide-d3, adenosine-13C5 and GTP-13C10) in a concentration range of 0.0002 to 20 nmol/mL. […] For metabolomic analyses in PBMCs, several aliquots of one sample were thawed on ice, centrifuged (10 min, 350×g, 4° C.), resuspended in ice-cold PBS and counted on a countess II cell counter. […]
For UPLC-MRM/MS, 10 μL aliquots of each standard solution and each sample solutions were injected to run LCMRM/MS either on a Waters Acquity UPLC coupled to a Sciex QTRAP 6500 Plus mass spectrometer with (−) ion detection or ESI or on an Agilent 1290 UHPLC system coupled to an Agilent 6495B QQQ mass spectrometer with (+) ion detection. […] Concentrations of individual metabolites detected in each sample were calculated by constructing linear-regression curves of individual metabolites with the analyte-to-internal standard peak area ratios (As/Ai) of standard solutions in each set of LC-MS runs and then by interpolating the calibration curves with the as/Ai values measured from injections of sample solutions in an appropriate concentration range for each compound. […]

In data set [3] the test system is individuals with Parkinson's disease. Briefly: High-dose NR safety study in PD (Example 5). Conditions: oral NR 3000 mg daily, 4 weeks. It is filed as in vivo, human. The method, then: • To determine the safety of oral NR 3000 mg daily for a period of 4 weeks in individuals with Parkinson's disease (PD). Safety is defined as the absence of NR-associated moderate or severe adverse events (AE).
This is a single center, phase I double blinded, randomized, placebo controlled drug-safety study.
20 patients are included in this study: 10 receiving 3000 mg oral NR and 10 receiving placebo.
Each capsule of NR contains 250 mg of NR. Patients administer orally 6 capsules (1500 mg) two times daily (3000 mg daily total) for the duration of the study (4 weeks). Placebo capsules are administered similarly (6 capsules two times daily). The study medication is to be taken every day during the treatment period, including prior to study visits.
An adverse event (AE) can therefore be any unfavourable and unintended sign (including an abnormal laboratory finding), symptom, or disease temporally associated with the use of a investigational product, whether or not related to the investigational product. The term AE is used to include both serious and non-serious AEs. If an abnormal laboratory value/vital sign is associated with clinical signs and symptoms, the sign/symptom is reported as an AE and the associated laboratory result/vital sign is considered as additional information that must be collected. Only intensity 2 and 3 is registered as AE. […]

The test system of data set [4] is healthy individuals. Particulars: cited from earlier work.
The test system of data set [5] is drosophila fly models. Conditions: Schöndorf et al. 2018; cited from earlier work.
The test system of data set [6] is rats. Conditions: rat, in vivo; cited from earlier work.

In the case of `NC(=O)c1ccc[n+]([C@@H]2O[C@H](CO)[C@@H](O)[C@H]2O)c1` [NR, nicotinamide riboside], in data set [1], the “Me-2-PY level in muscle tissue after treatment” value is recorded as “strongly elevated”, the “Me-4-PY level in muscle tissue after treatment” value was “strongly elevated”, the “NAAD level in muscle tissue after treatment” value was “strongly elevated” and the “Nam N-oxide level in muscle tissue after treatment” value is recorded as “strongly elevated”. In addition, in data set [1], the “acetyl-CoA, CoA, SAM and its metabolites, energy compounds such as ATP in muscle” value was “no significant change”; the “methyl-Nam (Me-Nam) level in muscle tissue after treatment” value is on record as “strongly elevated”; the “steady state levels of NAD (NAD+ and NADH), NAD precursors and intermediates in muscle” value was “not significantly changed”. For the same compound, in data set [2], the “Me-Nam level in PBMCs” value is on record as “increase”; the “NAAD level in PBMCs” value is “increase”; the “acetyl-CoA, CoA, SAM and its metabolites, energy compounds such as ATP in PBMCs” value is “no significant change”. Also, the “adverse events reported throughout the study” value in data set [3] is on record as “no serious adverse events or any adverse events of medical significance”. The “oral bioavailability in humans” value in data set [4] (Trammell et al. 2016) is reported as “good oral bioavailability”. For the same compound, the “total levels of NAD and related metabolites in blood and muscle” value in data set [4] (healthy individuals, oral 1000 mg NR daily) is given as “substantially elevates”. Also, the “mitochondrial defects and dopaminergic neuronal loss in drosophila fly models” value in data set [5] is “rescues mitochondrial defects and age-related dopaminergic neuronal loss”. Further, the non-lethal oral dose in data set [6] was not below 5000 mg/kg.

The values above are taken from patent publication US20240366648A1, “NAD-AUGMENTATION THERAPY FOR PARKINSON'S DISEASE” (Vestlandets Innovasjonsselskap AS (VIS), priority 2021, published 2024).
